# Measurements taken from patent US12171743B2, “Forms of aticaprant” (Janssen Pharmaceuticals, Inc., priority 2022, dated 2024).
# “Also recorded” adds a separate entry of the source.
# Key:
# Type in all cases: physicochemical
# [1] = Gravimetric vapor sorption (GVS)
# Method: Sorption isotherms were obtained using a SMS DVS Intrinsic moisture sorption analyzer, controlled by DVS Intrinsic Control software. The sample temperature was maintained at 25° C. by the instrument controls. The humidity was controlled by mixing streams of dry and wet nitrogen, with a total flow rate of 200 mL/min. The relative humidity was measured by a calibrated Rotronic probe (dynamic range of 1.0-100% RH), located near the sample. The weight change, (mass relaxation) of the sample as a function of % RH was constantly monitored by a microbalance (accuracy ±0.005 mg).
# Typically, 5-30 mg of sample was placed in a tared mesh stainless steel basket under ambient conditions. The sample was loaded and unloaded at 40% RH and 25° C. (typical room conditions). A moisture sorption isotherm was performed as outlined below (2 scans per complete cycle). The standard isotherm was performed at 25° C. at 10% RH intervals over a 0-90% RH range. Typically, a double cycle (4 scans) was carried out. Data analysis was carried out within Microsoft Excel using the DVS Analysis Suite. See, Table 15.
# The sample was recovered after completion of the isotherm and re-analyzed by XRPD.
# [2] = Competitive slurries of Forms I, II and III (thermodynamic stability)
# Method: Competitive slurrying experiments were carried out with Form I, Form II and Form III to determine the relative order of stability. Slurrying experiments were carried out in six different solvent systems 5 and 50° C.
# Saturated solutions of Form III were prepared in different solvent systems. See, Table 32. Each vial was filled with the relevant solvent (1.5 mL in each) and placed to equilibrate at the relevant temperature. After this time, small spatulas of the solid were added until the solid no longer dissolved. Samples were left to stir at 5° C. and 50° C. for ca. 2 weeks or longer as noted.
# Form III (180 mg) and Form II (180 mg) were combined into a 4 mL vial. The sample was placed on a turbula blender for 30 mins, after which a small sample was taken and analyzed by XRPD to confirm a mixture. 10 mg of this mixture was weighed and a mixture of Form I and Form II was instead used as seeds in the competitive slurries. To each vial was added the mixture of Forms I and II (7 mg). See, Table 33.
# [3] = Solubility observation of Form III in solvents
# Method: Form III of aticaprant (20 mg) was weighed into 3 HPLC vials. Each vial was treated with 10 vol (250 μL) of the relevant solvent at 25° C. and shaken. The sample in t-BuOH was placed at 90° C. for a few seconds, where a solution was obtained. The solutions were filtered using a 0.45 μm PTFE membrane Acrodisc filter, before being flash frozen in an acetone/dry ice bath for 5 minutes. The samples were then freeze-dried overnight. The resulting solids were characterized by XRPD.
# […] Form III of aticaprant (20 mg) was dispensed into amber HPLC vials (×49) with a magnetic stirrer bar. Each vial was treated with the relevant solvent (5 vol) at RT and stirred at 300 rpm for 10 mins. If suspensions were still observed, increasing volumes of the solvent were added until the material fully dissolved or until a maximum of 80 vol had been used (Table 20). All samples were heated to 50° C. and held for 1 hour. The samples were then cooled to 5° C. at a rate of 0.1° C./min and left to stir overnight. Any suspensions remaining at this point were subjected to maturation at RT/50° C. for 2 weeks.
# [4] = Static storage at elevated temperature and humidity, form by XRPD; details: for form after static storage: (10 days), Form II prepared at 1 g scale; for form (XRPD) after static storage: 1 week
# Method: After static storage of amorphous aticaprant at 40° C./75% RH for 1 week, Form II was obtained.
# Fresh amorphous aticaprant was prepared for static storage at 40° C./75% RH for 1 week. Both solvents produced amorphous aticaprant. Tg was determined to be 45.5° C. by mDSC. See, Table 19 for the characterization of amorphous aticaprant.
# Form I was obtained in the screens from ethyl acetate and MEK (both through solvent evaporation). It also was obtained from addition of heptane antisolvent to solutions in ethyl acetate and diethyl ether. The sample from the solubility assessment in ethyl acetate was isolated and characterized by XRPD, ^1H NMR, and DSC (FIG. 7), and static storage at elevated temperature and humidity.
compound,measurement,setting,value
Cc1cc(C)cc(C2CCCN2Cc2ccc(Oc3ccc(C(N)=O)cc3F)cc2)c1 (centres unmarked) [Form III],GVS hysteresis,[1],No hysteresis observed
same,XRPD / form after GVS,[1],XRPD unchanged after GVS
same,GVS max uptake,"[1]; at 90% RH, 25° C.",0.4% max uptake at 90% RH
same,"relative stability among Forms I, II and III (in words)",[2],most stable form
same,solubility observation,"[3]; 70% THF/H2O, 250 μL/10 vol, RT","Soluble, biphasic"
same,solubility observation,[3]; t-BuOH at 90° C.,(soluble at 90° C.)
same,solubility observation,"[3]; t-BuOH, 250 μL/10 vol, 25° C.",Insoluble
Cc1cc(C)cc(C2CCCN2Cc2ccc(Oc3ccc(C(N)=O)cc3F)cc2)c1 (centres unmarked) [Form II],stability after static storage at elevated temperature and humidity (in words),[4],remained stable
same,form after static storage,[4]; 25° C./97% RH,Form II
same,form after static storage,[4]; 40° C./75% RH,Form II
same,GVS hysteresis,[1],slight hysteresis
same,XRPD / form after GVS,[1],XRPD post-GVS: Form II
same,hygroscopicity (in words),[1],slightly hygroscopic; also recorded: Sample exhibits low hygroscopicity
Cc1cc(C)cc(C2CCCN2Cc2ccc(Oc3ccc(C(N)=O)cc3F)cc2)c1 (centres unmarked) [Form I],stability after static storage at elevated temperature and humidity (in words),[4],remains stable
same,form (XRPD) after static storage,[4]; 40° C./75% RH,Form I
Cc1cc(C)cc(C2CCCN2Cc2ccc(Oc3ccc(C(N)=O)cc3F)cc2)c1 (centres unmarked) [amorphous aticaprant],form (XRPD) after static storage,[4]; 40° C./75% RH,Form II
same,form (XRPD) after static storage,"[4]; 40° C./75% RH, listed as amorphous Aticaprant",Form II
